Measurements reported in patent EP4775199A1, “DRUG-RELEASING ELECTROACTIVE IMPLANT FOR NERVOUS SYSTEM REPAIR” (priority 2023, dated 2025).
“Also recorded” adds a separate entry of the source.

Experiments:
[1] = tested on: rats with spinal cord transection
[2] = tested on: rats with spinal cord transection; test: Systemic (subcutaneous) administration of SB743921 after spinal cord transection; type: in vivo; details: for Reduction of fibrosis: 7 DPI
Method: (§1) A spinal transection model in adult male Wistar rats was used. Experimental protocols followed European Commission regulations and Spanish legislation for the protection of experimental animals (86/609/EEC, 32/2007, and 223/1988) and were approved by the Ethical Committee for Animal Experimentation of the Hospital Nacional de Parapléjicos of Toledo, Spain. In summary, animals were anesthetized by intraperitoneal (IP) injection of pentobarbital (50 mg/kg) and xylazine (10 mg/kg), providing supplemental doses of 30% one and a half hours later as needed. There were also administered atropine (0.04 mg/kg, IP) to decrease bronchial secretions, marbofloxacin as a prophylactic antibiotic, and ophthalmic ointment to prevent corneal abrasion. A dorsal laminectomy of the T9-T10 vertebrae, under which the T10 and T11 spinal segments are located, respectively, was performed. A small diagonal cut was made in the dura mater, followed by complete spinal cord transection. After a second more rostral cut, the tissue in between was extirpated leaving a neural tissue gap of about 2 mm (Figure 1A). Bleeding was controlled by introducing a fragment of Espongostan® into the cavity, which was removed once hemostasis was achieved. Durorrhaphy was then performed with simple stitches using 10-0 thread; and finally, the muscles and skin were sutured in layers.
(§2) The same spinal cord transection model described in Example 1 was used, in other words, a 2 mm neural gap was created and the dura mater was sutured without other treatments at the injured site. The drug was dissolved in water at 0.8 mg/ml and administered subcutaneously (SC).
(§3) Neural damage, Fibrosis development, inflammation, and repair responses (axonal growth, glial migration, blood vessel growth) were evaluated by means of immunohistochemical staining for axons (neurofilament, NF, Sigma-Aldrich N0142; serotonin, ImmunoSolution IG1112; tyrosine hydroxylase, TH, Sigma AB152), neuronal somas and their dendrites (microtubule-associated protein, MAP2, Sigma M1406), astroglia (glial fibrillary acidic protein, GFAP, BD Biosciences 556327); pericytes and fibroblasts (PDGFR, Abcam AB32570; type IV collagen, Meridian, T40251R), macrophages and microglia (ED1; Chemicon MAB 1435; isolectin B4, Fisher I21411), and endothelial cells (RECA1, Bio-Rad, MCA970R).

[3] = as above; type: in vivo, rats; details: rat, in vivo, every 12 hours, starting 12 hours post-injury, at 7 DPI
Method: as §1, §2, §3

[4] = tested on: meningeal fibroblasts; type: cell-based, rat; details: 10 nM SB743921, 48 hours; control almost 90 %
Method: Meningeal fibroblasts were cultured from adult rat dura mater and arachnoid mater in the presence of fetal bovine serum following published procedures (Collazos-Castro JE, Polo JL, Hernández-Labrado […]. Bioelectrochemical Control of Neural Cell Development on Conducting Polymers. Biomaterials 2010;31:9244-9255). […] The behavior of living cells was studied by means of videomicroscopy, capturing images every 30 minutes for 48 hours. In separate cultures, cell proliferation was also studied by means of the incorporation of 5-ethynyl-2'-deoxyuridine (EdU).

[5] = regimen a: 1 mg/kg subcutaneous, one dose every 24 hours for 2, 4, or 6 days, starting 12 hours post-injury
[6] = regimen b: 1 mg/kg SC, 5 doses, every 12 hours, starting 12 hours post-injury
[7] = regimen c: 1 mg/kg SC, 4 doses, every 12 hours, starting 24 hours post-injury
[8] = regimen e: 1,125 mg/kg SC, 4 doses, every 12 hours, starting 12 hours post-injury

In the case of `Cc1ccc(NC(=O)c2ccc(CN3CCN(C)CC3)cc2)cc1Nc1nccc(-c2cccnc2)n1` [imatinib], the “safety (death, adverse effects)” value ([1]; imatinib regimen a: 4 doses of 5 mg/kg SC, every 12 hours, starting 12 hours post-injury, with implant and ES) is reported as “completely safe”, the “inflammatory cells in the perilesional spinal segments” value ([1]; imatinib regimen a: 4 doses of 5 mg/kg SC, every 12 hours, with implant and ES) is reported as “reduced presence of inflammatory cells” and the “PDGFR+ residual fibrotic tissue in the injury site” value ([1]; imatinib regimen b: regimen a and additionally 5 mg/kg everyday until the end of electrostimulation, with implant and ES) is reported as “practically eliminated”. For the same compound, the “cases with separation of the stumps of the spinal cord” value ([1]; imatinib regimen b, with implant and ES) was “two thirds”, the “distance between the astrocyte front of the stumps” value ([1]; imatinib regimen b, with implant and ES, 14 DPI, remaining one-third of the animals) was “about 400 µm” and the “axonal extension and branching” value ([1]; implant with ES combined with subcutaneous imatinib versus implant with ES alone) was “significantly increasing axonal extension and branching”.
In the case of `Cc1ccc(C(=O)N(CCCN)[C@@H](c2oc3cc(Cl)ccc3c(=O)c2Cc2ccccc2)C(C)C)cc1` [SB743921], the neural tissue gap ([2]; Figure 3, 7 DPI, GFAP and MAP2 labeling, initial gap 2 mm) is reported as “less than 500 µm”, the “fibrosis (PDGFR)” value ([2]; Figure 3, 7 DPI, regimen not stated) is reported as “partial reduction” and the Neural tissue damage ([2]; rat, in vivo, sc, 1 mg/kg) is reported as “Severe spinal atrophy with 6 doses”. The Systemic adverse effects [2, 5] was “No detected in the period of survival (7 days post-injury, DPI)”, the Reduction of fibrosis [2, 5] was “Slight reduction from the 4th dose” and the “signs of neurotoxicity in the perilesional tissue” value ([2]; regimen b) was “no obvious signs of neurotoxicity”. For the same compound, the Neural tissue damage [2, 6] was “Mild microhemorrhages”, the Systemic adverse effects [2, 6] was “Diarrhea, peritonitis” and the Reduction of fibrosis [2, 6] was “partially reduced fibrosis; also recorded: Partial”. For the same compound, the “animals that had died 7 DPI” value ([2]; regimen b, signs of enterocolitis and bacterial translocation or intestinal perforation) was “Four of the seven”, the Neural tissue damage [2, 7] was “Increases due to inflammation” and the Reduction of fibrosis [2, 7] was “Inconsistent”. The Reduction of fibrosis ([2]; regimen d: 1 mg/kg SC, 4 doses, every 12 hours, starting 12 hours post-injury) was “Inconsistent”, the Neural tissue damage [2, 8] was “Inconsistent” and the Systemic adverse effects [2, 8] was “Diarrhea, peritonitis”. The Reduction of fibrosis [2, 8] was “Inconsistent”, the mortality at 168 h ([3]; 1.125 mg/kg, regimen e: 1,125 mg/kg SC, 4 doses) was greater than 90% and the mortality at 168 h ([3]; regimen b: 1 mg/kg SC, 5 doses) was greater than 50%. For the same compound, the “cells that incorporated EdU” value [4] was 20%.
